Test results as given in patent US7022738B2, “α-ketoamide derivative and use thereof” (Senju Pharmaceutical Co., Ltd., priority 2002, dated 2006).

Columns and labels:
[1] = Permeability test with Caco-2 cells; type: in vitro ADME; settings: human, Caco-2 monolayer, apical to basolateral, 30 and 60 minutes, read-out: apparent permeation coefficient (Papp)
Description: Permeability Test with Caco-2 Cells
0.5×10^6/cm^2 of Caco-2 cells (ATCC Catalog No. HTB-37, Manassas, Va., USA) were seeded into Transwell (polycarbonate filter: pore diameter 0.4 μm; culture area 0.33 cm^2; available from Costar Co.), and incubated in Dulbecco's modified Eagle's minimum essential medium (DMEM; available from Fisher Scientific International Inc.) for 21 to 30 days under the conditions of 37° C., 5% CO2 and 95% relative humidity, whereby a monolayer cell was prepared. The confluence of such a monolayer cell was evaluated by measuring trans epithelial electronic resistance (TEER). […] Based on the quantification results, apparent permeation coefficient (Papp) was calculated according to the formula: Papp=(δQ/δt)×(1/60AC0). • Papp: apparent permeation coefficient (cm/sec) • δQ/δt: permeation velocity (pmol/min) • A: area of monolayer cell=0.33 cm^2 • C0: initial concentration at apical membrane side (pmol/mL)

melting point: 107.6 to 109.9 °C
Papp A→B at 60 min, 10 μM [1]: 17 ×10⁻⁶ cm/s
Structure (SMILES): CCCCNC(=O)C(=O)[C@H](CC(C)C)NC(=O)[C@@H](NS(=O)(=O)c1ccc(F)cc1)C(C)C [Compound 1, (3S)-N-Butyl-3-((2S)-2-(((4-fluorophenyl)sulfonyl)amino)-3-methylbutanoylamino)-5-methyl-2-oxohexanamide]
